From patent US20230212222A1 (ANYGEN CO., LTD., priority 2020, published 2023)
Square brackets hold non-standard residues; d marks the D form. Peptide text beside a SMILES is read from it. * marks the point of attachment. His(Trt) = N[C@@H](Cc1cn(C(c2ccccc2)(c2ccccc2)c2ccccc2)cn1)C(=O)O; dHis(Trt) = N[C@H](Cc1cn(C(c2ccccc2)(c2ccccc2)c2ccccc2)cn1)C(=O)O; His(τ-CHPh2) = N[C@@H](Cc1cn(C(c2ccccc2)c2ccccc2)cn1)C(=O)O; Biotin = O=C1N[C@H]2[C@H](CS[C@H]2CCCCC(=O)*)N1; dPhe(4-CF3) = N[C@H](Cc1ccc(C(F)(F)F)cc1)C(=O)O; sY = N[C@@H](Cc1ccc(OS(=O)(=O)O)cc1)C(=O)O; Bip = N[C@@H](Cc1ccc(-c2ccccc2)cc1)C(=O)O; Tyr(3-NH2) = Nc1cc(C[C@H](N)C(=O)O)ccc1O; dPhe(4-Cl) = N[C@H](Cc1ccc(Cl)cc1)C(=O)O; dPhe(4-Me) = Cc1ccc(C[C@@H](N)C(=O)O)cc1; d2Nal = N[C@H](Cc1ccc2ccccc2c1)C(=O)O; Myristoyl = CCCCCCCCCCCCCC(=O)*; Octanoyl = CCCCCCCC(=O)*

Experiments:
GPR39 [1] = biological target: T1, GPR39 (Homo sapiens, UniProt O43194)
T1 sequence (O43194 1-453): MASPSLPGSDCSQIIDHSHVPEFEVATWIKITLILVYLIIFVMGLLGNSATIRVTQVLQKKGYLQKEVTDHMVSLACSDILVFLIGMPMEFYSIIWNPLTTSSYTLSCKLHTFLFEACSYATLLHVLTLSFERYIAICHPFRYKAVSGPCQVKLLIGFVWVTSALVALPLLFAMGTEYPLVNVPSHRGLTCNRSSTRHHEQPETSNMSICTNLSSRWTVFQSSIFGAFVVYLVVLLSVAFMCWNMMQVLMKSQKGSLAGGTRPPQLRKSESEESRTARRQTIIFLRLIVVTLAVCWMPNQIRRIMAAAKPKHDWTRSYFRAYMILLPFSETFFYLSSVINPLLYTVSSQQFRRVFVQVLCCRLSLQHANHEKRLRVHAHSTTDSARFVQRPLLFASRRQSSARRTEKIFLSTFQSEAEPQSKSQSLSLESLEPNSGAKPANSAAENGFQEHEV
Experimental: (§1) Specifically, the fibroblast cell line CV-1 (1×10^5 cells/ml, Korea Cell Line Bank) was cultured in a 96 well cell culture plate for 24 hours, and then treated with GPR39 inserted into adenovirus and SRE (serum response element) luciferase at 50 MOI (multiplicity of infection) and 25 MOI virus for 3 hours, respectively, and then cultured for 24 hours.

GPR39 [2] = biological target: T1, GPR39; experiment: luciferase assay system (SRE luciferase reporter gene) for GPR39 in CV-1 cells; details: for EC50: EC50, CV-1 cells, GPR39 and SRE luciferase adenovirus, treated 6 hours, luminometer
Experimental: as §1

CCCCCCCC(=O)NCCCC[C@@H](NC(=O)[C@@H](N)Cc1cn(C(c2ccccc2)(c2ccccc2)c2ccccc2)cn1)C(=O)N[C@H](Cc1ccc(Cl)cc1)C(=O)N[C@@H](Cc1ccc(O)cc1)C(=O)O [HKFY-16, ((R)-2-((R)-2-((S)-2-amino-3-(1-trityl-1H-imidazol-4-yl)propanamido)-6-octanamidohexanamido)-3-(4-chlorophenyl)propanoyl)-L-tyrosine] (H-[His(Trt)][dK](Octanoyl)[dPhe(4-Cl)]Y-OH)
ECmax (-fold induction over basal) (GPR39 [1]): 27.9 ± 3.4 -fold induction over basal | EC50 (GPR39 [2]): 240 ± 20 nM

CCCCCCCC(=O)NCCCC[C@H](NC(=O)[C@H](N)Cc1cn(C(c2ccccc2)(c2ccccc2)c2ccccc2)cn1)C(=O)N[C@H](Cc1ccc(Cl)cc1)C(=O)N[C@H](Cc1ccc(O)cc1)C(=O)O [HKFY-14, ((R)-2-((S)-2-((R)-2-amino-3-(1-trityl-1H-imidazol-4-yl)propanamido)-6-octanamidohexanamido)-3-(4-chlorophenyl)propanoyl)-D-tyrosine] (H-[dHis(Trt)]K(Octanoyl)[dPhe(4-Cl)][dY]-OH)
ECmax (-fold induction over basal) (GPR39 [1]): 20.9 ± 1.4 -fold induction over basal | EC50 (GPR39 [2]): 20 ± 3 nM

CCCCCCCC(=O)NCCCC[C@H](NC(=O)[C@H](Cc1cn(C(c2ccccc2)(c2ccccc2)c2ccccc2)cn1)NC(=O)CCCC[C@@H]1SC[C@@H]2NC(=O)N[C@@H]21)C(=O)N[C@@H](Cc1ccccc1)C(=O)N[C@@H](Cc1ccc(O)cc1)C(=O)O [HKFY-2, N6-octanoyl-N2-(Na-(5-((3aS,4S,6aR)-2-oxohexahydro-1H-thieno[3,4-d]imidazol-4-yl)pentanoyl)-Nt-trityl-L-histidyl)-L-lysyl-L-phenylalanyl-L-tyrosine] (Biotin-[His(Trt)]K(Octanoyl)FY-OH)
ECmax (-fold induction over basal) (GPR39 [1]): 15 ± 1.87 -fold induction over basal | EC50 (GPR39 [2]): 140 ± 70 nM

CCCCCCCC(=O)NCCCC[C@H](NC(=O)[C@H](Cc1cn(C(c2ccccc2)(c2ccccc2)c2ccccc2)cn1)NC(=O)CCCC[C@@H]1SC[C@@H]2NC(=O)N[C@@H]21)C(=O)N[C@@H](Cc1ccc(-c2ccccc2)cc1)C(=O)N[C@@H](Cc1ccc(O)cc1)C(=O)O [HKFY-45, ((S)-3-([1,1′-biphenyl]-4-yl)-2-((S)-6-octanamido-2-((S)-2-(5-((3aS,4S,6aR)-2-oxohexahydro-1H-thieno[3,4-d]imidazol-4-yl)pentanamido)-3-(1-trityl-1H-imidazol-4-yl)propanamido)hexanamido)propanoyl)-L-tyrosine] (Biotin-[His(Trt)]K(Octanoyl)[Bip]Y-OH)
ECmax (-fold induction over basal) (GPR39 [1]): 21 ± 2.58 -fold induction over basal | EC50 (GPR39 [2]): 140 ± 50 nM

CCCCCCCC(=O)NCCCC[C@H](NC(=O)[C@@H](N)Cc1cn(C(c2ccccc2)c2ccccc2)cn1)C(=O)N[C@H](Cc1ccc(C)cc1)C(=O)N[C@@H](Cc1ccc(OS(=O)(=O)O)cc1)C(=O)O [HKFY-35, (S)-2-((R)-2-((S)-2-((S)-2-amino-3-(1-benzhydryl-1H-imidazol-4-yl)propanamido)-6-octanamidohexanamido)-3-(p-tolyl)propanamido)-3-(4-(sulfooxy)phenyl)propanoic acid] (H-[His(τ-CHPh2)]K(Octanoyl)[dPhe(4-Me)][sY]-OH)
ECmax (-fold induction over basal) (GPR39 [1]): 18.9 ± 0.41 -fold induction over basal | EC50 (GPR39 [2]): 280 ± 70 nM

CCCCCCCC(=O)NCCCC[C@H](NC(=O)[C@@H](N)Cc1cn(C(c2ccccc2)c2ccccc2)cn1)C(=O)N[C@H](Cc1ccc(C)cc1)C(=O)N[C@@H](Cc1ccc(O)c(N)c1)C(=O)O [HKFY-70, (S)-2-((R)-2-((S)-2-((S)-2-amino-3-(1-benzhydryl-1H-imidazol-4-yl)propanamido)-6-octanamidohexanamido)-3-(p-tolyl)propanamido)-3-(3-amino-4-hydroxyphenyl)propanoic acid] (H-[His(τ-CHPh2)]K(Octanoyl)[dPhe(4-Me)][Tyr(3-NH2)]-OH)
ECmax (-fold induction over basal) (GPR39 [1]): 10.1 ± 1.6 -fold induction over basal | EC50 (GPR39 [2]): 20 ± 1 nM

CCCCCCCCCCCCCC(=O)NCCCC[C@H](NC(=O)[C@@H](N)Cc1cn(C(c2ccccc2)(c2ccccc2)c2ccccc2)cn1)C(=O)N[C@@H](Cc1ccccc1)C(=O)N[C@@H](Cc1ccc(O)cc1)C(=O)O [HKFY-26, N6-tetradecanoyl-N2-(Nt-trityl-L-histidyl)-L-lysyl-L-phenylalanyl-L-tyrosine] (H-[His(Trt)]K(Myristoyl)FY-OH)
ECmax (-fold induction over basal) (GPR39 [1]): 19.82 ± 0.57 -fold induction over basal | EC50 (GPR39 [2]): 280 ± 20 nM

CCCCCCCC(=O)NCCCC[C@H](NC(=O)[C@@H](N)Cc1cn(C(c2ccccc2)(c2ccccc2)c2ccc(C)cc2)cn1)C(=O)N[C@@H](Cc1ccccc1)C(=O)N[C@@H](Cc1ccc(O)cc1)C(=O)O [HKFY-5, N2-(Nt-(diphenyl(p-tolyl)methyl)-L-histidyl)-N6-octanoyl-L-lysyl-L-phenylalanyl-L-tyrosine]
ECmax (-fold induction over basal) (GPR39 [1]): 16 ± 1.7 -fold induction over basal | EC50 (GPR39 [2]): 1840 ± 200 nM

CCCCCCCC(=O)NCCCC[C@H](NC(=O)[C@@H](N)Cc1cn(C(c2ccccc2)c2ccccc2)cn1)C(=O)N[C@H](Cc1ccc(C)cc1)C(=O)N[C@@H](Cc1ccc(O)cc1)C(N)=O [HKFY-66, N-((S)-5-((S)-2-amino-3-(1-benzhydryl-1H-imidazol-4-yl)propanamido)-6-(((R)-1-(((S)-1-amino-3-(4-hydroxyphenyl)-1-oxopropan-2-yl)amino)-1-oxo-3-(p-tolyl)propan-2-yl)amino)-6-oxohexyl)octanamide] (H-[His(τ-CHPh2)]K(Octanoyl)[dPhe(4-Me)]Y-NH2)
ECmax (-fold induction over basal) (GPR39 [1]): 20.2 ± 3.5 -fold induction over basal | EC50 (GPR39 [2]): 11 ± 1 nM

CCCCCCCC(=O)NCCCC[C@H](NC(=O)[C@@H](N)Cc1c[nH]c(-c2ccccc2)n1)C(=O)N[C@H](Cc1ccc(C)cc1)C(=O)N[C@@H](Cc1ccc(O)cc1)C(=O)O [HKFY-57, ((R)-2-((S)-2-((S)-2-amino-3-(2-phenyl-1H-imidazol-4-yl)propanamido)-6-octanamidohexanamido)-3-(p-tolyl)propanoyl)-L-tyrosine]
ECmax (-fold induction over basal) (GPR39 [1]): 8.5 ± 2.3 -fold induction over basal | EC50 (GPR39 [2]): 260 ± 10 nM

CCCCCCCC(=O)NCCCC[C@H](NC(=O)[C@@H](N)Cc1cn(Cc2ccc(-c3ccccc3-c3nnn[nH]3)cc2)cn1)C(=O)N[C@H](Cc1ccc(C)cc1)C(=O)N[C@@H](Cc1ccc(O)cc1)C(=O)O [HKFY-77, ((R)-2-((S)-2-((S)-3-(1-((2′-(1H-tetrazol-5-yl)-[1,1′-biphenyl]-4-yl)methyl)-1H-imidazol-4-yl)-2-aminopropanamido)-6-octanamidohexanamido)-3-(p-tolyl)propanoyl)-L-tyrosine]
ECmax (-fold induction over basal) (GPR39 [1]): 11.6 ± 2.14 -fold induction over basal | EC50 (GPR39 [2]): 7 ± 2 nM

CCCCCCCC(=O)NCCCC[C@H](NC(=O)[C@@H](N)Cc1cn(C(c2ccccc2)(c2ccccc2)c2ccccc2)cn1)C(=O)N[C@H](Cc1ccc2ccccc2c1)C(=O)N[C@@H](Cc1ccc(O)cc1)C(=O)O [HKFY-74, ((R)-2-((S)-2-((S)-2-amino-3-(1-trityl-1H-imidazol-4-yl)propanamido)-6-octanamidohexanamido)-3-(naphthalen-2-yl)propanoyl)-L-tyrosine] (H-[His(Trt)]K(Octanoyl)[d2Nal]Y-OH)
ECmax (-fold induction over basal) (GPR39 [1]): 18.8 ± 3.2 -fold induction over basal | EC50 (GPR39 [2]): 8 ± 1 nM

CCCCCCCC(=O)NCCCC[C@H](NC(=O)[C@@H](N)Cc1cn(-c2ccccc2)cn1)C(=O)N[C@H](Cc1ccc(C)cc1)C(=O)N[C@@H](Cc1ccc(O)cc1)C(=O)O [HKFY-58, ((R)-2-((S)-2-((S)-2-amino-3-(1-phenyl-1H-imidazol-4-yl)propanamido)-6-octanamidohexanamido)-3-(p-tolyl)propanoyl)-L-tyrosine]
ECmax (-fold induction over basal) (GPR39 [1]): 9.12 ± 2.1 -fold induction over basal | EC50 (GPR39 [2]): 20 ± 2 nM

CCCCCCCC(=O)NCCCC[C@H](NC(=O)[C@@H](N)Cc1cn(C(c2ccccc2)(c2ccccc2)c2ccccc2)cn1)C(=O)N[C@H](Cc1ccc(C(F)(F)F)cc1)C(=O)N[C@@H](Cc1ccc(O)cc1)C(=O)O [HKFY-76, ((R)-2-((S)-2-((S)-2-amino-3-(1-trityl-1H-imidazol-4-yl)propanamido)-6-octanamidohexanamido)-3-(4-(trifluoromethyl)phenyl)propanoyl)-L-tyrosine] (H-[His(Trt)]K(Octanoyl)[dPhe(4-CF3)]Y-OH)
ECmax (-fold induction over basal) (GPR39 [1]): 14.2 ± 3.75 -fold induction over basal | EC50 (GPR39 [2]): 7 ± 1 nM

CCCCCCCC(=O)NCCCC[C@H](NC(=O)[C@@H](N)Cc1cn(C(c2ccccc2)c2ccc(OC)cc2)cn1)C(=O)N[C@H](Cc1ccc(C)cc1)C(=O)N[C@@H](Cc1ccc(O)cc1)C(=O)O (stereo partly drawn) [HKFY-64, ((2R)-2-((2S)-2-((2S)-2-amino-3-(1-((4-methoxyphenyl)(phenyl)methyl)-1H-imidazol-4-yl)propanamido)-6-octanamidohexanamido)-3-(p-tolyl)propanoyl)-L-tyrosine]
ECmax (-fold induction over basal) (GPR39 [1]): 16 ± 1.5 -fold induction over basal | EC50 (GPR39 [2]): 7 ± 1 nM | activity level for GPR39 (in words) (GPR39 [2]; comment on Table 3): higher activity level than other HJKFY derivatives
